*1 amine or outer side, *2 acyl side, *3 side chain or, on linkers, in order; H or OH if unused. Where a SMILES comes first, the peptide text is derived from it. Bridges are numbered along the chain shown (N, C = ends). [ ]: non-standard residue; d: D form. The star is where a group is joined. hPhe(3,5-F2-4-CF3) = N[C@@H](CCc1cc(F)c(C(F)(F)F)c(F)c1)C(=O)O; hPhe(3-Cl-4-CF3) = N[C@@H](CCc1ccc(C(F)(F)F)c(Cl)c1)C(=O)O; NPrPhe(4-CF3) = CCCN[C@@H](Cc1ccc(C(F)(F)F)cc1)C(=O)O; NMePhe(4-F) = CN[C@@H](Cc1ccc(F)cc1)C(=O)O; NMeGly(cPent) = CN[C@H](C(=O)O)C1CCCC1; Pro(4,4-F2) = O=C(O)[C@@H]1CC(F)(F)CN1; X13 = CCC[C@](C)(N[*:1])C(=O)[*:2]; NMeD = CN[C@@H](CC(=O)O)C(=O)O; NMeL = CN[C@@H](CC(C)C)C(=O)O; Morpholide = C1CN(*)CCO1; Ac5c = NC1(C(=O)O)CCCC1; Sar = CNCC(=O)O
Columns and labels:
[1] = target: GDP-bound NRAS wild-type protein (Homo sapiens, UniProt P01111); experiment: Binding to NRAS by surface plasmon resonance (SPR), Single Cycle Kinetics; details: SPR; for NRAS/KRAS (ratio of KD value for NRAS to KD value for KRAS) / NRAS/KRAS (ratio of KD value with respect to NRAS to KD value with respect to KRAS): GDP-bound NRAS wild-type vs GDP-bound KRAS wild-type
[2] = target: GDP-bound HRAS wild-type protein (Homo sapiens, UniProt P01112); experiment: Binding to HRAS by surface plasmon resonance (SPR), Single Cycle Kinetics; details: SPR; for HRAS/KRAS (ratio of KD value for HRAS to KD value for KRAS) / HRAS/KRAS (ratio of KD value with respect to HRAS to KD value with respect to KRAS): GDP-bound HRAS wild-type vs GDP-bound KRAS wild-type
GDP-bound HRAS wild-type protein, sequence (P01112 whole entry): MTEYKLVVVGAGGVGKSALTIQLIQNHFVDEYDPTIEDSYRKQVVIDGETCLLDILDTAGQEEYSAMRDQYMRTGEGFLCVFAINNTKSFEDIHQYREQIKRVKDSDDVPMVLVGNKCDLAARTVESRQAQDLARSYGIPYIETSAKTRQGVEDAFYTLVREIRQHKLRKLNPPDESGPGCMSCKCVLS

GDP-bound NRAS wild-type protein, sequence (P01111 whole entry): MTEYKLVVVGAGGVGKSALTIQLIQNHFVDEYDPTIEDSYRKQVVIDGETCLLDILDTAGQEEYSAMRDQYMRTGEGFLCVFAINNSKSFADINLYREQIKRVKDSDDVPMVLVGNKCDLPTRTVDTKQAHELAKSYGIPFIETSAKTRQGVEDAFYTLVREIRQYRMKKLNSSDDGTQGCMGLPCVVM

Compound: CC[C@H](C)[C@@H]1NC(=O)[C@H](CC2CC2)N(C)C(=O)C[C@@H](C(=O)N(C)C)N(C)C(=O)[C@H](C2CCCC2)N(C)C(=O)C2(CCC2)N(C)C(=O)[C@@H]2CCCN2C(=O)[C@H](CCc2cc(F)c(C(F)(F)F)c(F)c2)NC(=O)CN(C)C(=O)[C@H](Cc2ccc(C)cc2)N2CC/C=C\C[C@@H](C2=O)N(C)C(=O)CN(C)C1=O [PP1796]
- NRAS/KRAS (ratio of KD value for NRAS to KD value for KRAS) [1]: A (a compound having 10 or more and less than 20 is denoted as A)
- HRAS/KRAS (ratio of KD value for HRAS to KD value for KRAS) [2]: B (a compound having 3 or more and less than 10 is denoted as B)

Compound: CCCN1C(=O)[C@@H]2CCN2C(=O)[C@H](C)N(C)C(=O)[C@H]([C@@H](C)CC)NC(=O)[C@H](CC(C)C)N(C)C(=O)C[C@@H](C(=O)N2CCOCC2)N(C)C(=O)[C@H](C2CCCC2)N(C)C(=O)C2(CCCC2)NC(=O)[C@@H]2C[C@@H](O)CN2C(=O)[C@H](CCc2ccc(C(F)(F)F)c(Cl)c2)NC(=O)CN(C)C(=O)[C@@H]1Cc1ccc(C(F)(F)F)cc1 [PP0239]
- NRAS/KRAS (ratio of KD for GDP-bound NRAS wild-type to KD for KRAS) ([1]; KD ratio NRAS/KRAS): C (A compound having a KD ratio of 0.1 or more and less than 3 is denoted as C)
- HRAS/KRAS (ratio of KD for GDP-bound HRAS wild-type to KD for KRAS) ([2]; KD ratio HRAS/KRAS): B (a compound having 3 or more and less than 10 is denoted as B)

Compound: CCCN1C(=O)CN(C)C(=O)CN(C)C(=O)[C@H]([C@@H](C)CC)NC(=O)[C@H](CC(C)C)N(C)C(=O)C[C@@H](C(=O)N(C)C)N(C)C(=O)[C@H](C2CCCC2)N(C)C(=O)[C@](C)(CCC)NC(=O)[C@@H]2CCCN2C(=O)[C@H](CCc2cc(F)c(C(F)(F)F)c(F)c2)NC(=O)CN(C)C(=O)[C@@H]1Cc1ccc(C(F)(F)F)cc1 [PP0737] ([NMeL]I[Sar][Sar][NPrPhe(4-CF3)][Sar][hPhe(3,5-F2-4-CF3)]P[X13][NMeGly(cPent)][NMeD]-NMe2; lactam N-11)
- NRAS/KRAS (ratio of KD value with respect to GDP-bound NRAS wild-type protein to KD value with respect to KRAS) ([1]; KD ratio NRAS/KRAS): B (a compound having 3 or more and less than 10 is denoted as B)
- HRAS/KRAS (ratio of KD value with respect to GDP-bound HRAS wild-type protein to KD value with respect to KRAS) ([2]; KD ratio HRAS/KRAS): C (A compound having a KD ratio of 0.1 or more and less than 3 is denoted as C)

Compound: CC[C@H](C)[C@@H]1NC(=O)[C@H](CC(C)C)N(C)C(=O)C[C@@H](C(=O)N2CCOCC2)N(C)C(=O)[C@H](C2CCCC2)N(C)C(=O)C2(CCCC2)NC(=O)[C@@H]2CCCN2C(=O)[C@H](CCc2ccc(C(F)(F)F)c(Cl)c2)NC(=O)CN(C)C(=O)[C@H](Cc2ccc(F)cc2)N(C)C(=O)CN(C)C(=O)CN(C)C1=O [PP0212] ([NMeL]I[Sar][Sar][NMePhe(4-F)][Sar][hPhe(3-Cl-4-CF3)]P[Ac5c][NMeGly(cPent)][NMeD]-Morpholide; lactam N-11)
- NRAS/KRAS (ratio of KD for GDP-bound NRAS wild-type to KD for KRAS) ([1]; KD ratio NRAS/KRAS): C (A compound having a KD ratio of 0.1 or more and less than 3 is denoted as C)
- HRAS/KRAS (ratio of KD for GDP-bound HRAS wild-type to KD for KRAS) ([2]; KD ratio HRAS/KRAS): C (A compound having a KD ratio of 0.1 or more and less than 3 is denoted as C)

Compound: CCO[C@@H]1C[C@H]2C(=O)NC3(CCC3)C(=O)N(C)[C@@H](C3CCCC3)C(=O)N(C)[C@H](C(=O)N(C)C)CC(=O)N(C)[C@@H](CC)C(=O)N[C@@H]([C@@H](C)CC)C(=O)N(C)CC(=O)N(C)[C@H]3CCCCCN(C3=O)[C@@H](Cc3nccs3)C(=O)N(C)CC(=O)N[C@@H](CCc3cc(F)c(C(F)(F)F)c(F)c3)C(=O)N2C1 [PP0913]
- NRAS/KRAS (ratio of KD value with respect to NRAS to KD value with respect to KRAS) [1]: B (a compound having 3 or more and less than 10 is denoted as B)
- HRAS/KRAS (ratio of KD value with respect to HRAS to KD value with respect to KRAS) [2]: B (a compound having 3 or more and less than 10 is denoted as B)

Compound: CC[C@H](C)[C@@H]1NC(=O)[C@H](CC)N(C)C(=O)C[C@@H](C(=O)N(C)CC)N(C)C(=O)[C@H](C2CCCC2)N(C)C(=O)C2(CC(C)(C)C2)NC(=O)[C@@H]2C[C@@H](C)CN2C(=O)[C@H](CCc2ccc(C(F)(F)F)c(OC)c2)NC(=O)CN(C)C(=O)[C@H](Cc2ccc(C)cc2)N2CC/C=C\C[C@@H](C2=O)N(C)C(=O)CN(C)C1=O [PP1870]
- NRAS/KRAS (ratio of KD value for NRAS to KD value for KRAS) [1]: A (a compound having 10 or more and less than 20 is denoted as A)
- HRAS/KRAS (ratio of KD value for HRAS to KD value for KRAS) [2]: A (a compound having 10 or more and less than 20 is denoted as A)

Compound: CCCN1C(=O)CN(C)C(=O)CNC(=O)[C@H]([C@@H](C)CC)NC(=O)[C@H](CC(C)C)N(C)C(=O)C[C@@H](C(=O)N2CCOCC2)N(C)C(=O)[C@H](C2CCCC2)N(C)C(=O)C2(CCCC2)NC(=O)[C@@H]2CC(F)(F)CN2C(=O)[C@H](CCc2ccc(C(F)(F)F)c(Cl)c2)NC(=O)CN(C)C(=O)[C@@H]1Cc1ccc(C(F)(F)F)cc1 [PP0394] ([NMeL]IG[Sar][NPrPhe(4-CF3)][Sar][hPhe(3-Cl-4-CF3)][Pro(4,4-F2)][Ac5c][NMeGly(cPent)][NMeD]-Morpholide; lactam N-11)
- NRAS/KRAS (ratio of KD for GDP-bound NRAS wild-type to KD for KRAS) ([1]; KD ratio NRAS/KRAS): C (A compound having a KD ratio of 0.1 or more and less than 3 is denoted as C)
- HRAS/KRAS (ratio of KD for GDP-bound HRAS wild-type to KD for KRAS) ([2]; KD ratio HRAS/KRAS): C (A compound having a KD ratio of 0.1 or more and less than 3 is denoted as C)

Compound: CCO[C@@H]1C[C@H]2C(=O)NC3(CCC3)C(=O)N(C)[C@@H](C3CCCC3)C(=O)N(CC)[C@H](C(=O)N3CCOCC3)CC(=O)N(C)[C@@H](CCc3ccccc3)C(=O)N[C@@H]([C@@H](C)CC)C(=O)N(C)CC(=O)N(C)[C@H]3CCCCCN(C3=O)[C@@H](Cc3ccc(C(F)(F)F)cc3)C(=O)N(C)CC(=O)N[C@@H](CCc3cc(F)c(C(F)(F)F)c(F)c3)C(=O)N2C1 [PP0953]
- NRAS/KRAS (ratio of KD value with respect to NRAS to KD value with respect to KRAS) [1]: A (a compound having 10 or more and less than 20 is denoted as A)
- HRAS/KRAS (ratio of KD value with respect to HRAS to KD value with respect to KRAS) [2]: A (a compound having 10 or more and less than 20 is denoted as A)
